Test results reported in patent US20150315188A1, “COMPOUNDS AND METHODS FOR TREATMENT OF HYPERTENSION” (MEDIVATION TECHNOLOGIES, INC., priority 2012, published 2015).
pKi: −log10 of the molar value. Where two headings read alike, the source gives them in different places.

Key:
Design in all cases: purchased Milipore (Millipore)
[1] = molecular target: T1, Human adrenergic α1B receptor (Homo sapiens, UniProt P35368); assay: Radioligand binding, adrenergic α1B (Protocol Group B); conditions: Protocol Group B; for inhibition at 0.1 µM / Percentage inhibition of ligand binding, Adrenergic α1B (0.1 μM): 0.1 μM compound; for inhibition at 0.1 µM: read-out: Percentage inhibition of ligand binding, Adrenergic α1B (0.1 μM); for inhibition at 0.3 µM / Percentage inhibition of ligand binding, Adrenergic α1B (0.3 μM): 0.3 μM compound; for inhibition at 0.3 µM: read-out: Percentage inhibition of ligand binding, Adrenergic α1B (0.3 μM)
T1 sequence (P35368 1-520): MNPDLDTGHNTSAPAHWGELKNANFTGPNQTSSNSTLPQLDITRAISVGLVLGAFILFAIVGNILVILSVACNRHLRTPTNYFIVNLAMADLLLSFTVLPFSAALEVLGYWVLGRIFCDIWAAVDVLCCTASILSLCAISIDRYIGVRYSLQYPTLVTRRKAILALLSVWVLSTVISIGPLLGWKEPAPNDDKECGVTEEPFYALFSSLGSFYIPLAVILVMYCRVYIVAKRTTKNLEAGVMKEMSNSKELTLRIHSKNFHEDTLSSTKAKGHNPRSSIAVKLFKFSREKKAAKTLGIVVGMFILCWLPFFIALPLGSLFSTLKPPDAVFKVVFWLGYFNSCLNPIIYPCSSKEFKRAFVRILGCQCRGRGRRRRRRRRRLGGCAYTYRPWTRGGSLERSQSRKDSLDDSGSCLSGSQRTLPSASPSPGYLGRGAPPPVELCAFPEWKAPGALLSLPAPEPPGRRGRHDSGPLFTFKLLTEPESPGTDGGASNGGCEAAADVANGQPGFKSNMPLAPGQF
How it was run: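 Values are percent inhibition of specific [3H]prazosin (0.3 nM) binding or estimated Ki, from filtration counting. Human α1B recombinant membranes, Tris-HCl pH 7.4 buffer with MgCl2 and EDTA, 60 min at 25 °C, 1% DMSO vehicle; 10 μM prazosin defined nonspecific binding.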

[2] = molecular target: T2, Human adrenergic α2B receptor (Homo sapiens, UniProt P18089); assay: Radioligand binding, adrenergic α2B (Protocol Group B); conditions: Protocol Group B; for Percentage inhibition of ligand binding, Adrenergic α2B (10 nM): 0.01 µM; for Percentage inhibition of ligand binding, Adrenergic α2B (30 nM): 0.03 µM
T2 sequence (P18089 1-450): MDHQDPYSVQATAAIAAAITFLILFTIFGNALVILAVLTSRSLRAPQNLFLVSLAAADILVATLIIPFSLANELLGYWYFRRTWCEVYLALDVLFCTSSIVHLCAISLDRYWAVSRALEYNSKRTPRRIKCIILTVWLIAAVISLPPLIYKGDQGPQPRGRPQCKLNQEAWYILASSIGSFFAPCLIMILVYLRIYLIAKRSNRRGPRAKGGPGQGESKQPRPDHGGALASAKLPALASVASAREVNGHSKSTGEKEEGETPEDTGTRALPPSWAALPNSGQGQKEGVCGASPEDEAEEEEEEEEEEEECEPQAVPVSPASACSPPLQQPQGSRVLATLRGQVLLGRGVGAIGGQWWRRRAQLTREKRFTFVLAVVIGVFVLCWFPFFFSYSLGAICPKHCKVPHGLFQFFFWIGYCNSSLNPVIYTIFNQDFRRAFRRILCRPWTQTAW
How it was run: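 Compounds at various concentrations in 1% DMSO were tested on recombinant membranes in Tris-HCl pH 7.4 buffer containing MgCl2, CaCl2 and 0.2% BSA.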

[3] = molecular target: T3, Human adrenergic α2A receptor (Homo sapiens, UniProt P08913); assay: Radioligand binding, adrenergic α2A (Protocol Group B); conditions: Protocol Group B; for inhibition at 0.1 µM / Percentage inhibition of ligand binding, Adrenergic α2A (0.1 μM): 0.1 μM compound; for inhibition at 0.1 µM: read-out: Percentage inhibition of ligand binding, Adrenergic α2A (0.1 μM); for inhibition at 0.3 µM / Percentage inhibition of ligand binding, Adrenergic α2A (0.3 μM): 0.3 μM compound; for inhibition at 0.3 µM: read-out: Percentage inhibition of ligand binding, Adrenergic α2A (0.3 μM)
T3 sequence (P08913 1-465): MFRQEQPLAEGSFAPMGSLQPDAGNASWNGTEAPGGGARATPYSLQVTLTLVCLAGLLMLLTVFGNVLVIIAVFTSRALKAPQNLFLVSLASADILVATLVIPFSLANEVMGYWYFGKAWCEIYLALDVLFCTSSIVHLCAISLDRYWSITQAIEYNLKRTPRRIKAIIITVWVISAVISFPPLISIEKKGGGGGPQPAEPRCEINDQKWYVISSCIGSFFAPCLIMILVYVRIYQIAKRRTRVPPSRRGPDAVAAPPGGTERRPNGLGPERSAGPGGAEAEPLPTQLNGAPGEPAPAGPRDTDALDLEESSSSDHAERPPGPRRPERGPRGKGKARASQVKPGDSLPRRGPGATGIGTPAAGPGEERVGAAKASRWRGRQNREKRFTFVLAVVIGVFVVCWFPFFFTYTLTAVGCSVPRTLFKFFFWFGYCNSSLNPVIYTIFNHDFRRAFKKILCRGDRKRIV
How it was run: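 Compounds (1% DMSO vehicle, various concentrations) competed against 2 nM [^3H]MK-912 on recombinant receptor membranes for 60 min at 25° C, Tris-HCl pH 7.4 buffer with Mg2+, Ca2+, BSA. Bound radioligand filtered and counted; 10 μM rauwolscine set nonspecific binding. Values: percent inhibition of specific binding or estimated Ki.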

[4] = 10 nM compound, read-out: Percentage inhibition of ligand binding, Adrenergic α2B (10 nM)

Row | SMILES | inhibition at 0.01 µM [2, 4] | inhibition at 0.03 µM ([2]; 30 nM compound, read-out: Percentage inhibition of ligand binding, Adrenergic α2B (30 nM)) | inhibition at 0.1 µM ([2]; 0.1 μM compound, read-out: Percentage inhibition of ligand binding, Adrenergic α2B (0.1 μM)) | Percentage inhibition of ligand binding, Adrenergic α1B (0.1 μM) [1] | Percentage inhibition of ligand binding, Adrenergic α1B (0.3 μM) [1] | Percentage inhibition of ligand binding, Adrenergic α2B (10 nM) ([2]; 10 nM compound) | Percentage inhibition of ligand binding, Adrenergic α2B (30 nM) ([2]; 30 nM compound) | Percentage inhibition of ligand binding, Adrenergic α2B (0.1 μM) ([2]; 0.1 μM compound) | Percentage inhibition of ligand binding, Adrenergic α2A (0.1 μM) [3] | Percentage inhibition of ligand binding, Adrenergic α2A (0.3 μM) [3] | inhibition at 0.1 µM [1] | inhibition at 0.3 µM [1] | inhibition at 0.1 µM [3] | inhibition at 0.3 µM [3] | pKi ([2]; Ki α2B, estimated Ki) | inhibition at 0.01 µM ([2]; read-out: Percentage inhibition of ligand binding, Adrenergic α2B (10 nM), 10 nM compound) | inhibition at 0.03 µM ([2]; read-out: Percentage inhibition of ligand binding, Adrenergic α2B (30 nM), 30 nM compound) | inhibition at 0.1 µM ([2]; read-out: Percentage inhibition of ligand binding, Adrenergic α2B (0.1 μM), 0.1 μM compound)
1 | Cc1ccc2c(c1)c1c(n2CC(C)(O)c2ccncc2)CC2CCCN2C1 (single isomer, unassigned) [37d] | – | – | – | 5% | 14% | 15% | 36% | 68% | 4% | 17% | – | – | – | – | – | – | – | –
2 | Cc1ccc2c(c1)c1c(n2CC(C)(O)c2ccc(N(C)C)nc2)CCN(C)C1 (single isomer, unassigned) [39a] | – | – | – | 15% | 36% | 15% | 38% | 62% | 12% | 26% | – | – | – | – | – | – | – | –
3 | Cc1ccc2c(c1)c1c(n2CC(OC(N)=O)c2ccncc2)CCN(C)C1 (single isomer, unassigned) [8a] | – | – | – | 18% | 22% | 12% | 21% | 48% | 20% | 14% | – | – | – | – | – | – | – | –
4 | Cc1ccc2c(c1)c1c(n2CC(C)(O)c2cccnc2)CC2CCC1N2C (single isomer, unassigned) [101a] | – | – | – | – | – | – | – | – | – | – | 6% | 17% | 7% | 21% | 7.79 | 23% | 38% | 71%
5 | Cc1cc(C)c2c(c1)c1c(n2CC(C)(O)c2ccncc2)CCN2CCCC12 (single isomer, unassigned) [19c] | – | – | – | −5% | −1% | −13% | −12% | 6% | −7% | 1% | – | – | – | – | – | – | – | –
6 | Cc1ccc2c(c1)c1c(n2CC(O)c2ccncc2)CNC2CCCC12 (single isomer, unassigned) [34a] | 21% | – | – | −2% | −10% | – | −12% | −11% | −9% | −5% | – | – | – | – | – | – | – | –

Further lines, with some results ahead:

Row | inhibition at 0.01 µM [2, 4] | inhibition at 0.03 µM ([2]; 30 nM compound, read-out: Percentage inhibition of ligand binding, Adrenergic α2B (30 nM)) | inhibition at 0.1 µM ([2]; 0.1 μM compound, read-out: Percentage inhibition of ligand binding, Adrenergic α2B (0.1 μM)) | Percentage inhibition of ligand binding, Adrenergic α1B (0.1 μM) [1] | Percentage inhibition of ligand binding, Adrenergic α1B (0.3 μM) [1] | Percentage inhibition of ligand binding, Adrenergic α2B (10 nM) ([2]; 10 nM compound) | Percentage inhibition of ligand binding, Adrenergic α2B (30 nM) ([2]; 30 nM compound) | Percentage inhibition of ligand binding, Adrenergic α2B (0.1 μM) ([2]; 0.1 μM compound) | Percentage inhibition of ligand binding, Adrenergic α2A (0.1 μM) [3] | Percentage inhibition of ligand binding, Adrenergic α2A (0.3 μM) [3] | SMILES | inhibition at 0.1 µM [1] | inhibition at 0.3 µM [1] | inhibition at 0.1 µM [3] | inhibition at 0.3 µM [3] | pKi ([2]; Ki α2B, estimated Ki) | inhibition at 0.01 µM ([2]; read-out: Percentage inhibition of ligand binding, Adrenergic α2B (10 nM), 10 nM compound) | inhibition at 0.03 µM ([2]; read-out: Percentage inhibition of ligand binding, Adrenergic α2B (30 nM), 30 nM compound) | inhibition at 0.1 µM ([2]; read-out: Percentage inhibition of ligand binding, Adrenergic α2B (0.1 μM), 0.1 μM compound)
7 | 13% | 8% | 12% | – | – | – | – | – | – | – | Cc1ccc2c(c1)c1c(n2CC(O)c2cccnc2)C(F)(F)CN(C)C1 (stereo not shown) [compound 30, 2-(4,4-difluoro-2,8-dimethyl-3,4-dihydro-1H-pyrido[4,3-b]indol-5(2H)-yl)-1-(pyridin-3-yl)ethanol] | 0% | 17% | -18% | -5% | – | – | – | –
8 | – | – | – | −9% | 8% | 6% | 28% | 59% | 3% | 12% | CN1CCc2c(c3cc(C(F)(F)F)ccc3n2CC(OC2CCCC2)c2ccncc2)C1 (single isomer, unassigned) [60b] | – | – | – | – | – | – | – | –
9 | – | – | – | 9% | – | – | 31% | – | 7% | – | CN1CCc2c(c3cc(CCO)ccc3n2CC(C)(O)c2cccnc2)C1 (single isomer, unassigned) [139a] | – | – | – | – | – | – | – | –
10 | – | – | – | 12% | 35% | −4% | 16% | 43% | −1% | 12% | Cc1ccc2c(c1)c1c(n2CC(O)c2ccccn2)CC2CCCN2C1 (single isomer, unassigned) [45a] | – | – | – | – | – | – | – | –
11 | – | – | – | 1% | −6% | −4% | 4% | 1% | −10% | −15% | CC(O)(Cn1c2c(c3cc(Cl)cc(F)c31)C1CCCN1CC2)c1cccnc1 (single isomer, unassigned) [53c] | – | – | – | – | – | – | – | –
12 | – | – | – | 12% | 27% | 21% | 57% | 82% | 11% | 25% | Cc1cc(F)c2c(c1)c1c(n2CC(C)(O)c2ccncc2)CC2CCCN2C1 (single isomer, unassigned) [62d] | – | – | – | – | – | – | – | –
13 | – | – | – | 10% | 15% | 47% | 52% | 65% | 5% | 21% | Cc1cc(F)c2c(c1)c1c(n2CC(C)(O)c2ccncc2)CC2CCCN2C1 (single isomer, unassigned) [62c] | – | – | – | – | – | – | – | –
